CC(c1nc2ccccc2c(=O)n1-c1ccc(F)cc1)N(Cc1ccccn1)C(=O)Cc1ccc(C(F)(F)F)cc1.Cl (stereo not shown)
melting point: 159.2 °C
